How the values were obtained:
[1] = test system: LUHMES and dLUHMES cells
[2] = test system: SH-SY5Y; conditions: cited from earlier work

O=c1c(O)c(-c2ccc(O)c(O)c2)oc2cc(O)cc(O)c12 [QRC, Quercetin]
cytotoxic sensitivity ([ATP] IC50) of LUHMES and/or dLUHMES relative to the other cell lines [1]: more sensitive than the other cell lines
In vitro neural selectivity (effect reported in SH-SY5Y) [2]: Toxic or protective in SH- SY5Y ([Ossola et al., 2008])

— paper PMC5094908 (Journal of applied toxicology : JAT, 2016)
